# Patent EP3041353B1, “COMPOSITIONS COMPRISING BACTERIOSTATIC AGENTS AND BRILLIANT BLUE G” (priority 2013, dated 2015)
# Tests used:
# [1] = test system: HCE-Zellen; type: cell-based, human
# Procedure: Die Erfindung wird im Folgenden rein zu Veranschaulichungszwecken anhand der angehängten Figuren und von Ausführungsbeispielen näher erläutert. • Figur 1 Effekt von 0,025% BBG auf die Toxizität von unterschiedlichen Konzentrationen (in Gew.-%) von Benzalkoniumchlorid (BAK) auf HCE-Zellen (HCE = human corneal epithelium, Menschliche Hornhautepithelzellen) bei verschiedenen Einwirkdauern (5, 30, 60 min). Oben: BAK ohne BBG. Unten: BAK mit BBG. Inkubationsmedium: Phosphat-gepufferte Kochsalzlösung (PBS). • Figur 2 Effekt von BBG (in Gew.-%) in unterschiedlichen Konzentrationen auf die Toxizität von BAK bei 0,003% (oben) und 0,008% (unten). PBS = Phosphat-gepufferte Kochsalzlösung; BBS = balanced salt solution (ausgeglichene Salzlösung). • Figur 3 Effekt von BBG (0,025 Gew.-%) auf die Toxizität von Octenidindihydrochlorid (Oct) in unterschiedlichen Konzentrationen (in Gew.-%) nach 5 min Inkubation (oben) und 30 min Inkubation (unten). Octenidin alone = Octenidin allein (ohne BBG). • Figur 4 Effekt von BBG (0,025 %) auf die Toxizität von Cetylpyridiniumchlorid (CPC) in unterschiedlichen Konzentrationen (in Gew.-%) nach 5 min Inkubation (oben) und 30 min Inkubation (unten). CPC alone = Cetylpyridiniumchlorid allein (ohne BBG). • Figur 5 Effekt von BBG (0,025 %) auf die Toxizität von Chlorhexidin (CHex) in Form von Chlorhexidindigluconat in unterschiedlichen Konzentrationen (in Gew.-%) nach 5 min Inkubation (oben) und 30 min Inkubation (unten). Chlorhexidin alone = Chlorhexidin allein (ohne BBG)
# Figur 1 zeigt die Wirkung von BBG 0,025% Gew.-% auf die Toxizität von unterschiedlichen Konzentrationen (in Gew.-%) von Benzalkoniumchlorid (BAK) auf HCE-Zellen (HCE = human corneal epithelium, Menschliche Hornhautepithelzellen) bei verschiedenen Einwirkdauern (5, 30, 60 min).
# Figur 2 zeigt die Wirkung von BBG (in Gew.-%) in unterschiedlichen Konzentrationen und zwei unterschiedlichen Medien (PBS und BSS) auf die Toxizität von BAK bei 0,003% (oben) und 0,008% (unten) bei HCE-Zellen. Die Schutzwirkung von BBG bei niedrigeren BAK-Konzentrationen setzt schon bei 0,003% BBG ein. Bei höheren BAK-Konzentrationen sind 0,015% notwendig.
# Figur 3 zeigt die Wirkung von BBG (0,025 Gew.-%) auf die Toxizität von Octenidin (Oct) Form von Octenidindihydrochlorid in unterschiedlichen Konzentrationen (in Gew.-%) nach 5 min Inkubation (oben) und 30 min Inkubation (unten). Octenidin alone = Octenidin allein (ohne BBG). […] BBG (0,025 Gew.-%) kann diesen Effekt bei 5 min Inkubation (links) bis zu einer Oct-Konzentration von 0,01% (der höchsten getesteten Konzentration) verhindern. Bei 30 min Einwirkzeit (rechts) ist erst ab 0,009 Gew.-% Oct der Schutz nicht mehr maximal.
# Die Figuren 4 und 5 zeigen die Wirkung von BBG (0,025 Gew.-%) auf die Toxizität von Cetylpyridiniumchlorid (CPC, Fig. 4) und Chlorhexidin (CHex in Form von Chlorhexidindigluconat, Fig. 5) in unterschiedlichen Konzentrationen (in Gew.-%) nach 5 min Inkubation (jeweils oben) und 30 min Inkubation (jeweils unten).
# [2] = test system: Pseudomonas putida DSM 291; experiment: Bacteriostatic effect of Octenidin with BBG: turbidity after 24 h incubation; type: cell-based; parameters: key: +: Bakterienwachstum nach 24 h Inkubation; -: kein Bakterienwachstum nach 24 h Inkubation
# Procedure: (§1) Zur Untersuchung des Einflusses von BBG auf die bakteriostatische Wirkung wurden Bakterien 24 h mit erfindungsgemäßen Zusammensetzungen, Benzalkoniumchlorid (BAK) und Octenidin (Oct) als Bakteriostatikum enthielten, inkubiert. Wenn sich die Inkubationsmischung trübte, wurde das als Bakterienwachstum interpretiert. Zum Vergleich wurde Brillantblau R (BBR) anstelle von BBG eingesetzt. Die Ergebnisse sind in den Tabellen 1-4 wiedergegeben. Tabelle 1: Einfluss von BBG und BBR auf die bakteriostatische Wirkung von BAK gegenüber Escherichia coli (E. coli), + = Bakterienwachstum nach 24 h Inkubation, - = kein Bakterienwachstum nach 24 h Inkubation, R = Brillantblau R (BBR), G = Brillantblau G (BBG).
# Gram-negative Bakterien (hier E. coli) sind widerstandsfähiger als Gram-positive Bakterien (hier Bacillus sp.) und wachsen konzentrationsabhängig. […] Tabelle 3: Einfluss von BBG auf die bakteriostatische Wirkung von Octenidin (Oct) gegenüber Gram-negativen Bakterien., + = Bakterienwachstum nach 24 h Inkubation, - = kein Bakterienwachstum nach 24 h Inkubation, BBG = Brillantblau G.
# [3] = test system: Escherichia coli (E. coli); experiment: Bacteriostatic effect of BAK with BBG/BBR: turbidity after 24 h incubation; type: cell-based; parameters: key to Bakterienwachstum nach 24 h Inkubation: +: Bakterienwachstum nach 24 h Inkubation; -: kein Bakterienwachstum nach 24 h Inkubation
# Procedure: as §1
structure (smiles),measurement,setting,value
"CCOc1ccc(Nc2ccc(C(=C3C=CC(=[N+](CC)Cc4cccc(S(=O)(=O)[O-])c4)C=C3C)c3ccc(N(CC)Cc4cccc(S(=O)(=O)O)c4)cc3C)cc2)cc1 [BBG, Brillantblau G]",Überleben,[1],leichten Erniedrigung des Überlebens
same,Schutzwirkung (=erhöhtes Zellüberleben),"[1]; BBG 0,025% with BAK, 60 min Einwirkzeit, PBS (Figur 1)",noch deutlich vorhanden
same,"CPC-Konzentration, bis zu der der Schutzeffekt gegeben ist","[1]; BBG 0,025 Gew.-% with CPC, 5 min and also 30 min Einwirkzeit (Figur 4)","~0,02%"
same,Schutzeffekt,"[1]; BBG 0,025 Gew.-% with Chlorhexidin (Chlorhexidindigluconat), 5 and 30 min, compared with the CPC result (Figur 5)",Ähnliches gilt
same,"Oct-Konzentration, bis zu der BBG den zellschädigenden Effekt verhindert","[1]; BBG 0,025 Gew.-%, 5 min Inkubation, highest Oct concentration tested (Figur 3)","≤ 0,01%"
same,"Oct-Konzentration, ab der der Schutz nicht mehr maximal ist","[1]; BBG 0,025 Gew.-%, 30 min Einwirkzeit (Figur 3)","≥ 0,009 Gew.-%"
same,Schutzwirkung (zelltoxische Wirkung der Bakteriostatika bei gleichzeitiger Gabe),[1]; dye given together with the bacteriostatic agent,stark reduziert
same,"BBG-Konzentration, die für die Schutzwirkung notwendig ist","[1]; höhere BAK-Konzentration (BAK 0,008%), PBS and BSS (Figur 2)","0,015%"
same,"BBG-Konzentration, bei der die Schutzwirkung einsetzt","[1]; niedrigere BAK-Konzentration (BAK 0,003%), PBS and BSS (Figur 2)","0,003%"
same,Bakterienwachstum nach 24 h Inkubation,"[2]; 0,007% BBG + Octenidin 0,01%",-
same,Bakterienwachstum nach 24 h Inkubation,"[2]; 0,007% BBG + Octenidin 0,002%",+
same,Bakterienwachstum nach 24 h Inkubation,"[2]; 0,007% BBG + Octenidin 0,003%",-
same,Bakterienwachstum nach 24 h Inkubation,"[2]; 0,007% BBG + Octenidin 0,005%",-
same,Bakterienwachstum nach 24 h Inkubation,"[2]; 0,007% BBG + Octenidin 0,007%",-
same,Bakterienwachstum nach 24 h Inkubation,"[2]; 0,007% BBG + Octenidin 0,009%",-
same,Bakterienwachstum nach 24 h Inkubation,"[2]; 0,007% BBG, Octenidin 0%",+
same,Bakterienwachstum nach 24 h Inkubation,"[2]; 0,015% BBG + Octenidin 0,01%",-
same,Bakterienwachstum nach 24 h Inkubation,"[2]; 0,015% BBG + Octenidin 0,002%",+
same,Bakterienwachstum nach 24 h Inkubation,"[2]; 0,015% BBG + Octenidin 0,003%",+
same,Bakterienwachstum nach 24 h Inkubation,"[2]; 0,015% BBG + Octenidin 0,005%",+
same,Bakterienwachstum nach 24 h Inkubation,"[2]; 0,015% BBG + Octenidin 0,007%",-
same,Bakterienwachstum nach 24 h Inkubation,"[2]; 0,015% BBG + Octenidin 0,009%",-
same,Bakterienwachstum nach 24 h Inkubation,"[2]; 0,015% BBG, Octenidin 0%",+
same,Bakterienwachstum nach 24 h Inkubation,"[2]; 0,030% BBG + Octenidin 0,01%",+
same,Bakterienwachstum nach 24 h Inkubation,"[2]; 0,030% BBG + Octenidin 0,002%",+
same,Bakterienwachstum nach 24 h Inkubation,"[2]; 0,030% BBG + Octenidin 0,003%",+
same,Bakterienwachstum nach 24 h Inkubation,"[2]; 0,030% BBG + Octenidin 0,005%",+
same,Bakterienwachstum nach 24 h Inkubation,"[2]; 0,030% BBG + Octenidin 0,007%",+
same,Bakterienwachstum nach 24 h Inkubation,"[2]; 0,030% BBG + Octenidin 0,009%",+
same,Bakterienwachstum nach 24 h Inkubation,"[2]; 0,030% BBG, Octenidin 0%",+
same,Bakterienwachstum nach 24 h Inkubation,"[3]; 0,007% G + BAK 0,01%",-
same,Bakterienwachstum nach 24 h Inkubation,"[3]; 0,007% G + BAK 0,001 %",+
same,Bakterienwachstum nach 24 h Inkubation,"[3]; 0,007% G + BAK 0,0016%",+
same,Bakterienwachstum nach 24 h Inkubation,"[3]; 0,007% G + BAK 0,0025%",+
same,Bakterienwachstum nach 24 h Inkubation,"[3]; 0,007% G + BAK 0,004%",-
same,Bakterienwachstum nach 24 h Inkubation,"[3]; 0,007% G + BAK 0,006%",-
same,Bakterienwachstum nach 24 h Inkubation,"[3]; 0,015% G + BAK 0,01%",-
same,Bakterienwachstum nach 24 h Inkubation,"[3]; 0,015% G + BAK 0,001 %",+
same,Bakterienwachstum nach 24 h Inkubation,"[3]; 0,015% G + BAK 0,0016%",+
same,Bakterienwachstum nach 24 h Inkubation,"[3]; 0,015% G + BAK 0,0025%",+
same,Bakterienwachstum nach 24 h Inkubation,"[3]; 0,015% G + BAK 0,004%",+
same,Bakterienwachstum nach 24 h Inkubation,"[3]; 0,015% G + BAK 0,006%",-
same,Bakterienwachstum nach 24 h Inkubation,"[3]; 0,030% G + BAK 0,01%",+
same,Bakterienwachstum nach 24 h Inkubation,"[3]; 0,030% G + BAK 0,001 %",+
same,Bakterienwachstum nach 24 h Inkubation,"[3]; 0,030% G + BAK 0,0016%",+
same,Bakterienwachstum nach 24 h Inkubation,"[3]; 0,030% G + BAK 0,0025%",+
same,Bakterienwachstum nach 24 h Inkubation,"[3]; 0,030% G + BAK 0,004%",+
same,Bakterienwachstum nach 24 h Inkubation,"[3]; 0,030% G + BAK 0,006%",+
same,Bakterienwachstum nach 24 h Inkubation,"[3]; 0,030% G, Kein BAK",+
same,Einfluss auf die bakteriostatische Wirkung von BAK,"[3]; Gram-negative Bakterien (E. coli), concentration dependent",einen etwas größeren Einfluss als BBR
same,Einfluss auf das Bakterienwachstum,"[3]; dye alone, no BAK (rechte Spalte, Tabelle 1)",beeinflussen das Bakterienwachstum nicht
